From the NIST ThermoML archive (doi:10.1021/je8007759)
± gives the expanded uncertainty stated by the source.

Test: xn = mol fraction of the nth substance listed

CC1CCC(=O)O1 (stereo not given) [γ-valerolactone] + O=C=O
Fluid (supercritical or subcritical phases), Pycnometric method
Conditions	mass density [kg/m3]
313.2 K, 10860 kPa, x1 = 0.1	942 ± 5
313.2 K, 10880 kPa, x1 = 0.025	833 ± 5
313.2 K, 11030 kPa, x1 = 0.01	778 ± 6
313.2 K, 11160 kPa, x1 = 0.025	840 ± 6
313.2 K, 11200 kPa, x1 = 0.05	872 ± 5
313.2 K, 11230 kPa, x1 = 0.15	981 ± 4
313.2 K, 11440 kPa, x1 = 0.01	789 ± 6
313.2 K, 11450 kPa, x1 = 0.025	846 ± 4
313.2 K, 11640 kPa, x1 = 0.1	949 ± 4
313.2 K, 11660 kPa, x1 = 0.05	878 ± 5
313.2 K, 11770 kPa, x1 = 0.025	852 ± 5
313.2 K, 11850 kPa, x1 = 0.15	985 ± 4
313.2 K, 11950 kPa, x1 = 0.01	802 ± 6
313.2 K, 12460 kPa, x1 = 0.15	987 ± 4
313.2 K, 12490 kPa, x1 = 0.1	956 ± 4
313.2 K, 13220 kPa, x1 = 0.15	992 ± 4
313.2 K, 13510 kPa, x1 = 0.1	964 ± 4
313.2 K, 13960 kPa, x1 = 0.15	995 ± 4
313.2 K, 14650 kPa, x1 = 0.15	999 ± 4
313.2 K, 15420 kPa, x1 = 0.15	1002 ± 4
313.2 K, 16160 kPa, x1 = 0.15	1006 ± 4
313.2 K, 16920 kPa, x1 = 0.15	1009 ± 4
316.2 K, 8740 kPa, x1 = 0.025	683 ± 17
316.2 K, 8760 kPa, x1 = 0.025	687 ± 16
316.2 K, 8790 kPa, x1 = 0.025	692 ± 16
316.2 K, 8810 kPa, x1 = 0.025	696 ± 14
316.2 K, 8830 kPa, x1 = 0.025	700 ± 12
316.2 K, 8880 kPa, x1 = 0.025	704 ± 15
316.2 K, 8910 kPa, x1 = 0.025	709 ± 24
316.2 K, 8960 kPa, x1 = 0.025	713 ± 12
316.2 K, 8990 kPa, x1 = 0.025	718 ± 9
316.2 K, 9060 kPa, x1 = 0.025	723 ± 9
316.2 K, 9110 kPa, x1 = 0.025	728 ± 9
316.2 K, 9180 kPa, x1 = 0.025	732 ± 10
316.2 K, 9250 kPa, x1 = 0.025	737 ± 9
316.2 K, 9320 kPa, x1 = 0.025	742 ± 6
316.2 K, 9410 kPa, x1 = 0.025	747 ± 9
316.2 K, 9500 kPa, x1 = 0.025	752 ± 9
316.2 K, 9590 kPa, x1 = 0.025	758 ± 8
316.2 K, 9700 kPa, x1 = 0.025	762 ± 8
316.2 K, 9800 kPa, x1 = 0.025	768 ± 7
316.2 K, 9930 kPa, x1 = 0.025	772 ± 6
316.2 K, 10060 kPa, x1 = 0.025	778 ± 7
316.2 K, 10210 kPa, x1 = 0.025	783 ± 6
316.2 K, 10360 kPa, x1 = 0.025	788 ± 6
316.2 K, 10520 kPa, x1 = 0.025	794 ± 6
316.2 K, 10720 kPa, x1 = 0.025	800 ± 6
316.2 K, 10910 kPa, x1 = 0.025	806 ± 6
316.2 K, 11110 kPa, x1 = 0.025	812 ± 6
316.2 K, 11350 kPa, x1 = 0.025	818 ± 5
316.2 K, 11610 kPa, x1 = 0.025	824 ± 5
316.2 K, 11880 kPa, x1 = 0.025	830 ± 5
316.2 K, 12200 kPa, x1 = 0.025	836 ± 5
316.2 K, 12480 kPa, x1 = 0.025	842 ± 5
318 K, 9060 kPa, x1 = 0.01	519 ± 22
318 K, 9080 kPa, x1 = 0.01	522 ± 22
318 K, 9090 kPa, x1 = 0.01	525 ± 21
318 K, 9110 kPa, x1 = 0.01	529 ± 21
318 K, 9120 kPa, x1 = 0.01	532 ± 21
318 K, 9140 kPa, x1 = 0.01	535 ± 22
318 K, 9180 kPa, x1 = 0.01	542 ± 22
318 K, 9180 kPa, x1 = 0.15	949 ± 4
318 K, 9190 kPa, x1 = 0.025	680 ± 38
318 K, 9220 kPa, x1 = 0.01	549 ± 10
318 K, 9230 kPa, x1 = 0.025	683 ± 47
318 K, 9250 kPa, x1 = 0.01	556 ± 20
318 K, 9260 kPa, x1 = 0.025	688 ± 42
318 K, 9270 kPa, x1 = 0.05	776 ± 19
318 K, 9290 kPa, x1 = 0.01	563 ± 20
318 K, 9290 kPa, x1 = 0.025	692 ± 37
318 K, 9330 kPa, x1 = 0.01	570 ± 19
318 K, 9330 kPa, x1 = 0.05	782 ± 17
318 K, 9340 kPa, x1 = 0.025	696 ± 21
318 K, 9380 kPa, x1 = 0.01	578 ± 18
318 K, 9380 kPa, x1 = 0.025	700 ± 20
318 K, 9410 kPa, x1 = 0.05	787 ± 9
318 K, 9410 kPa, x1 = 0.1	894 ± 10
318 K, 9430 kPa, x1 = 0.01	586 ± 18
318 K, 9430 kPa, x1 = 0.025	705 ± 17
318 K, 9480 kPa, x1 = 0.01	593 ± 17

313.2 K, Liquid, high pressure variable cell
Conditions	mass density [kg/m3]
x1 = 0.01	539 ± 6
x1 = 0.025	723 ± 6
x1 = 0.05	803 ± 4
x1 = 0.1	910 ± 4
x1 = 0.15	961 ± 4
